The record followed here is a melting point compilation (Tetko et al.).

As a reminder, the melting point is the temperature, or range, at which the solid turns liquid.

In turn, `CCOc1ccc(NC(=O)CCl)cc1` showed a melting point of 149 to 151 °C. For `CC(C)(C)OC(=O)NCc1cn[nH]c1` the value was 104 to 106 °C; for `CC(C)Nc1nc(COc2ccccc2)no1`, 86 to 88 °C. Regarding `Nc1nncc(-c2ccc(Cl)s2)n1`, the melting point is 259 to 261 °C.

Molecule `Nc1ncc(Cc2ccc(S(N)(=O)=O)cc2)s1` displayed a melting point of 177 to 179 °C. Take `O=C1CCC(C(F)(F)F)CN1` (stereo unspecified): the melting point fell in the range of 141 to 143 °C. Take `Nn1c(S)nnc1-c1ccccc1Br`: the melting point lay in the range of 188 to 190 °C. Molecule `Cc1cc(C)n2nc(S)nc2n1` registered a melting point of 259 to 261 °C. For `O=C(O)c1c2c(nc3ccccc13)CCN(Cc1ccccc1)C2`, the melting point is 224 to 226 °C. For the molecule `CCn1cc(C(=O)C(=O)O)cn1`, the melting point was in the range of 129 to 131 °C.

`COC(=O)c1cc(S(N)(=O)=O)ccc1F` had a melting point of 97 to 99 °C. `Oc1ccc(-c2ccccc2)nc1` gave a melting point of 174 to 176 °C. The figure for `CN1CCC/C1=N/S(=O)(=O)c1ccc(N)cc1` is 172 to 174 °C; for `Nc1cncnc1-c1ccccc1` it is 115 to 117 °C; for `CCNS(=O)(=O)c1ccc(C)c(C(=O)O)c1` it is 181 to 183 °C.

As to `CC(C)(C)c1ccccc1OCC(=O)O`, the melting point lay in the range of 144 to 148 °C. In turn, `CCOC(=O)COc1ccc(S(C)(=O)=O)cc1[N+](=O)[O-]` had a melting point of 131 to 133 °C.

In turn, `NS(=O)(=O)c1cc(F)ccc1Br` came in with a melting point of 170 to 172 °C.

With `O=C(O)c1ccc(C=C2NC(=S)N(c3ccc(F)cc3)C2=O)cc1`, the melting point fell in the range of 349 to 351 °C. `CC(C)(C)Sc1ccc(C#N)nc1` had a melting point of 60 to 62 °C. On to `Nc1ccc(F)c(NC(=O)C2CCCCC2)c1`, for which the melting point was 157 to 159 °C. `CC(=O)c1c(C)[nH]c(C(=O)C(C)Cl)c1C` (stereo unspecified) gave a melting point of 152 to 154 °C. The figure for `COc1coc(CCl)cc1=O` is 116 to 118 °C; for `O=C(CCl)N1CCCC1=O` it is 33 to 35 °C; for `Nc1ccn(Cc2ccccn2)n1` it is 88 to 90 °C. As for `NC(=NO)c1cccc(NC(=O)C2CC2)c1`, the melting point was in the range of 229 to 231 °C. In turn, `O=C1CCC(Cc2ccc(Cl)cc2)C(=O)N1` (stereo unspecified) yielded a melting point of 150 to 152 °C. The molecule `O=C(O)c1cc(Cl)c2cc(Cl)ccc2n1` registered a melting point of 194 to 196 °C.

`COc1cc2c(cc1/C=C/C(=O)O)OC(C)C2` (stereo unspecified) returned a melting point of 146 to 148 °C. For `COc1ccc(NC(=O)/C=N/O)cc1` the value was 180 to 182 °C. Consider `Nc1ccc(Cl)cc1-c1nc2ccccc2[nH]1`, for which the melting point was 236 to 238 °C. For `N#CCC(=O)c1ccc(C(F)(F)F)cc1` the value was 48 to 50 °C; for `COc1cc(NS(=O)(=O)c2ccc(N)cc2OC)cc(OC)c1`, 177 to 179 °C; for `CCOC(=O)COc1ccc(Br)cc1F`, 30 to 32 °C. On to `CC(C)[C@H](C(=O)O)N(C)C`, for which the melting point was in the range of 154 to 156 °C. In the case of `O=C(O)CCc1ccc2c(c1)OCCO2`, the melting point lay in the range of 64 to 66 °C.

`O=C(O)c1cccnc1OCC(F)F` registered a melting point of 79 to 81 °C.

`CCN(CC)S(=O)(=O)c1ccc(N2CCNCC2)c([N+](=O)[O-])c1` had a melting point of 131 to 133 °C. For the molecule `CC(C)CCn1cc(C(=O)O)nn1`, the melting point lay in the range of 187 to 189 °C.

For the molecule `Oc1ccc2nccnc2c1`, the melting point is 225 to 227 °C. For `CCOC(=O)C(C#N)C1C(=O)N(C)c2ccccc21` (stereo unspecified) the value was 119 to 121 °C; for `O=C(CCc1ccccc1)Cc1ccccc1`, 41 to 43 °C.

Turning to `CC(=O)C(C#N)c1c(Cl)cccc1Cl` (stereo unspecified), the melting point was 49 to 51 °C. In the case of `Cc1nn(-c2ccccc2)cc1N`, the melting point is 81 to 83 °C.

In the case of `Cc1cccc(C)c1-n1nnnc1S`, the melting point is 146 to 148 °C. In the case of `O=[N+]([O-])c1cc(S(=O)(=O)C(F)F)ccc1Cl`, the melting point was 71 to 73 °C. For `O=C(O)C1CCc2nncn2C1` (stereo unspecified) the value was 279 to 281 °C; for `O=C(Cc1ccc(Br)cc1)C(F)(F)F`, 38 to 40 °C; for `CC(C)(C)c1cnnc(N)n1`, 187 to 189 °C. The figure for `Cn1nnnc1-c1cccc(S(N)(=O)=O)c1` is 168 to 170 °C. Consider `NCCc1c[nH]c2cc(F)ccc12`, for which the melting point lay within 74 to 76 °C. As for `Cc1nn(C2CCCCC2)c(C)c1N`, the melting point was in the range of 69 to 71 °C. Turning to `COC(=O)c1ccc2c(=O)[nH]c(C)nc2c1`, the melting point lay in the range of 274 to 276 °C.

For `N#Cc1ccc(N2CCOCC2)nc1`, the melting point is 123 to 125 °C. `Cc1cc(O)cc(C(C)C)c1`: the melting point lay within 49 to 51 °C. `COc1cc(Br)c(F)cc1S(=O)(=O)Cl` yielded a melting point of 79 to 81 °C. Consider `COc1cc([N+](=O)[O-])ccc1I`, for which the melting point is 127 to 129 °C.

With `O=[N+]([O-])c1n[nH]cc1Br`, the melting point lay within 193 to 195 °C. For the molecule `Cc1ccc2c(c1)NC(=O)C(C)O2` (stereo unspecified), the melting point lay in the range of 146 to 148 °C. The molecule `Cc1c(N)cccc1C(=O)N1CCCC1` gave a melting point of 162 to 164 °C. In turn, `COc1cc(C=O)cc(OC)c1OCC(N)=O` had a melting point of 165 to 167 °C.

In turn, `Nc1ccc(S(=O)(=O)Nc2ccc(F)cc2)cc1` gave a melting point of 162 to 164 °C. `Nc1ccc(F)cc1-c1nc(CCOc2ccccc2)no1` returned a melting point of 122 to 124 °C. For `CC(=O)c1cccc(OCc2cn3ccccc3n2)c1` the value was 77 to 79 °C; for `CNS(=O)(=O)c1cc(OC)c(OC)cc1Br`, 156 to 158 °C.

`O=C(O)c1coc2ccccc12`: the melting point was in the range of 150 to 152 °C.

For `OCC1CNc2ccccc2C1` (stereo unspecified), the melting point was 79 to 81 °C. `Cc1cccc(-n2nc(C(C)(C)C)cc2N)c1` had a melting point of 90 to 92 °C. For `Cc1c(C(=O)O)[nH]c2c1C(=O)CC(C)(C)C2` the value was 206 to 208 °C. The figure for `NC(=O)c1ccccc1OCCC(=O)O` is 174 to 176 °C. `OCCN1CCSCC1` came in with a melting point of 34 to 36 °C. With `N#Cc1cccc(S(=O)(=O)n2ccc(N)n2)c1`, the melting point lay within 183 to 185 °C. As for `O=S(=O)(Cl)c1ccc(Cl)cc1C(F)(F)F`, the melting point was 45 to 47 °C. `NCc1ccc(-c2ccc3c(c2)CCO3)cc1`: the melting point fell in the range of 77 to 79 °C.

The molecule `CC(C)n1[nH]ccc1=NC(=O)Nc1ccccc1` displayed a melting point of 110 to 112 °C.

The molecule `N#CCCNS(=O)(=O)c1ccc(C(=O)O)cc1` registered a melting point of 240 to 242 °C. For `Nc1nc(-c2ccc(Cl)cc2)n[nH]1` the value was 219 to 221 °C; for `CCS(=O)(=O)NCc1ccc(C(=O)O)cc1`, 194 to 196 °C; for `CC(C)(CO)Nc1ccc(Br)cn1`, 103 to 105 °C. For `Cc1ccc2[nH]c(=O)n3nc(C4CC4)nc3c2c1` the value was 260 to 262 °C. `O=C1C2C3C=CC(C3)C2C(=O)N1c1cccc(Br)c1` (stereo unspecified): the melting point fell in the range of 192 to 194 °C. `Cc1ccc(-c2nn(-c3ccccc3)cc2C=O)o1` came in with a melting point of 112 to 114 °C. Take `CC(C)(C)n1nc[nH]c1=O`: the melting point fell in the range of 219 to 221 °C. The molecule `Cc1nc2nnnn2c(C)c1CCC(=O)O` returned a melting point of 187 to 189 °C. For `NCc1nnc2n1CCCC2C(F)(F)F` (stereo unspecified) the value was 81 to 83 °C; for `CCOc1ccc2c(c1)C=C(C(=O)O)CO2`, 186 to 188 °C.

As for `O=C(O)CCS(=O)(=O)c1ccc(Br)cc1`, the melting point lay within 151 to 153 °C. `Cc1cc(Br)ncc1N` returned a melting point of 54 to 56 °C. Turning to `NCc1nc(-c2ccc(Cl)cc2)cs1`, the melting point fell in the range of 105 to 107 °C. For `O=C(O)Cc1csc(N2CCCNC2=O)n1` the value was 184 to 186 °C. Consider `Oc1ccc(-c2nc3ccccc3s2)cc1Cl`, for which the melting point fell in the range of 186 to 188 °C.

With `O=C(NC1CC=CCC1)C(F)(F)F` (stereo unspecified), the melting point lay in the range of 58 to 60 °C. With `COc1cc(C2(C(=O)O)CCC2)ccc1C`, the melting point fell in the range of 125 to 127 °C. On to `Cn1cnc(S(=O)(=O)NCC(=O)O)c1`, for which the melting point was in the range of 211 to 213 °C. `N#Cc1ccc(S(=O)(=O)Cl)c([N+](=O)[O-])c1` came in with a melting point of 119 to 121 °C.

In the case of `COc1cc(C(=O)O)ccc1OCc1c(C)noc1C`, the melting point fell in the range of 216 to 218 °C. Take `CC1CNc2ccccc2NC1=O` (stereo unspecified): the melting point is 203 to 205 °C. The figure for `Fc1cc(Br)c(F)cc1S` is 47 to 49 °C; for `CC(=O)c1c(C)oc(N)c1C#N` it is 241 to 243 °C. Take `NC(=O)c1cccc(S(=O)(=O)Cl)c1`: the melting point lay in the range of 78 to 80 °C.

Consider `COc1ccc(C(=O)C(C)Br)cc1` (stereo unspecified), for which the melting point was in the range of 66 to 68 °C. On to `Cc1cc(C=O)ccc1-n1cncn1`, for which the melting point is 104 to 106 °C. For `COc1cc(C(C)=O)ccc1SCC(=O)O` the value was 134 to 136 °C; for `Cc1cccc(Nc2nnc(SCC(=O)O)s2)c1C`, 159 to 161 °C. Molecule `NC(=O)c1cc(N2CCCCC2)ccc1N` showed a melting point of 168 to 170 °C. For `Cc1cnc(Cl)cc1O` the value was 173 to 175 °C; for `N#CCc1c[nH]c2ccc(Cl)cc12`, 104 to 106 °C. `O=C(O)CN1C(=O)COc2ccc(S(=O)(=O)Cl)cc21` had a melting point of 159 to 161 °C. For `COCCCS(=O)(=O)NCC(=O)O`, the melting point fell in the range of 59 to 61 °C. Turning to `O=C(O)c1ccc(Oc2ccc(C(F)(F)F)cn2)cc1`, the melting point fell in the range of 218 to 220 °C.

In turn, `Cc1ccc(-n2nc(C(=O)O)cc2C)cc1` yielded a melting point of 149 to 151 °C.

In turn, `Nc1cc(F)ccc1N1CC(C(F)(F)F)OC1=O` (stereo unspecified) returned a melting point of 119 to 121 °C. Consider `Cc1ccccc1-n1c(C)cc(C=O)c1C`, for which the melting point is 71 to 73 °C. With `CC(C)(C)OC(=O)NC1CCC2CNCC21` (stereo unspecified), the melting point is 109 to 111 °C. In turn, `Nc1ccc2c(c1)C(=O)N(c1ccc(F)cc1)C2=O` gave a melting point of 211 to 213 °C. Molecule `CCC(=O)c1ccc(Cl)s1` came in with a melting point of 47 to 49 °C. `COc1ccc(C(=O)O)cc1S(=O)(=O)N1CCOCC1`: the melting point was 218 to 220 °C. The molecule `O=C(O)c1cccc(OC2CCCC2)c1` showed a melting point of 79 to 81 °C. For `O=C(C=NO)Nc1ccc2c(c1)OCCO2`, the melting point was in the range of 130 to 132 °C. `COc1ccc(Cl)cc1CC#N`: the melting point was 51 to 55 °C.

The molecule `O=Cc1cnn(-c2ccccc2)n1` came in with a melting point of 66 to 68 °C.
